Experimental data reported in ChEMBL document CHEMBL5370592, “Synthesis and Structure-Activity Relationships of a New Class of Oxadiazoles Targeting DprE1 as Antitubercular Agents” (ACS Med Chem Lett, 2023).
In brackets after ≈: the same amount, converted by molar mass. Activity calls are given as the source filed them. The calls are words filed in the database; no cut-off is given here.

Key:
[1] = Cytotoxicity against human HepG2 cells assessed as reduction in cell viability incubated for 24 hrs in DMEM/10% FBS supplemented with galactose by CellTiter-Glo luminescent assay; format: toxicity, cell-based
[2] = system: Mycobacterium tuberculosis; assay: Antitubercular activity against Mycobacterium tuberculosis H37Rv ATCC 27294 assessed as inhibition of bacterial growth cultured in Middlebrook 7H9/glucose/casitone/tyloxapol medium for 2 weeks; format: functional; conditions: H37Rv ATCC 27294, 336 h
[3] = system: Mycobacterium tuberculosis; assay: Antitubercular activity against Mycobacterium tuberculosis H37Rv ATCC 27294 assessed as inhibition of bacterial growth cultured in Middlebrook 7H9/BSA/Tyloxapol with glucose medium for 2 weeks; format: functional; conditions: H37Rv ATCC 27294, 336 h
[4] = Cytotoxicity against human HepG2 cells assessed as reduction in cell viability incubated for 24 hrs in DMEM/10% FBS supplemented with glucose by CellTiter-Glo luminescent assay; format: toxicity, cell-based
[5] = system: Mycobacterium tuberculosis; assay: Antitubercular activity against Mycobacterium tuberculosis CDC1551 assessed as inhibition of bacterial growth incubated for 2 weeks; format: functional; conditions: CDC1551, 336 h
[6] = system: Mycobacterium tuberculosis; assay: Antitubercular activity against Mycobacterium tuberculosis K09b00DS assessed as inhibition of bacterial growth incubated for 2 weeks; format: functional; conditions: 336 h
[7] = system: Mycobacterium tuberculosis; assay: Antitubercular activity against Mycobacterium tuberculosis K15b00DS assessed as inhibition of bacterial growth incubated for 2 weeks; format: functional; conditions: 336 h
[8] = system: Mycobacterium tuberculosis; assay: Antitubercular activity against Mycobacterium tuberculosis K11b00DS assessed as inhibition of bacterial growth incubated for 2 weeks; format: functional; conditions: 336 h
[9] = system: Mycobacterium tuberculosis; assay: Antitubercular activity against Mycobacterium tuberculosis clinical strain K5072429 assessed as inhibition of bacterial growth incubated for 2 weeks; format: functional; conditions: K5072429, 336 h
[10] = system: Mycobacterium tuberculosis; assay: Antitubercular activity against Mycobacterium tuberculosis K13b00DS assessed as inhibition of bacterial growth incubated for 2 weeks; format: functional; conditions: 336 h
[11] = system: Mycobacterium tuberculosis; assay: Antitubercular activity against Mycobacterium tuberculosis K10b00DS assessed as inhibition of bacterial growth incubated for 2 weeks; format: functional; conditions: 336 h
[12] = system: Mycobacterium tuberculosis; assay: Antitubercular activity against Mycobacterium tuberculosis K04b00DS assessed as inhibition of bacterial growth incubated for 2 weeks; format: functional; conditions: 336 h
[13] = system: Mycobacterium tuberculosis; assay: Antitubercular activity against Mycobacterium tuberculosis Erdman assessed as inhibition of bacterial growth incubated for 2 weeks; format: functional; conditions: 336 h
[14] = system: Mycobacterium tuberculosis; assay: Antitubercular activity against Mycobacterium tuberculosis NIH_G12 assessed as inhibition of bacterial growth incubated for 2 weeks; format: functional; conditions: NIH_G12, 336 h
[15] = system: Mycobacterium tuberculosis; assay: Antitubercular activity against Mycobacterium tuberculosis K05b00DS assessed as inhibition of bacterial growth incubated for 2 weeks; format: functional; conditions: 336 h
[16] = system: Mycobacterium tuberculosis; assay: Antitubercular activity against Mycobacterium tuberculosis K16b00DS assessed as inhibition of bacterial growth incubated for 2 weeks; format: functional; conditions: 336 h
[17] = system: Mycobacterium tuberculosis; assay: Antitubercular activity against Mycobacterium tuberculosis K12b00DS assessed as inhibition of bacterial growth incubated for 2 weeks; format: functional; conditions: 336 h
[18] = system: Mycobacterium tuberculosis; assay: Antitubercular activity against Mycobacterium tuberculosis K35b00DS assessed as inhibition of bacterial growth incubated for 2 weeks; format: functional; conditions: 336 h
[19] = system: Mycobacterium tuberculosis; assay: Antitubercular activity against Mycobacterium tuberculosis H37Rv ATCC 27294 assessed as inhibition of bacterial growth incubated for 2 weeks; format: functional; conditions: H37Rv ATCC 27294, 336 h
[20] = system: Mycobacterium tuberculosis; assay: Antitubercular activity against Mycobacterium tuberculosis K14b00DS assessed as inhibition of bacterial growth incubated for 2 weeks; format: functional; conditions: 336 h
[21] = system: Mycobacterium tuberculosis; assay: Antitubercular activity against Mycobacterium tuberculosis K17b00DS assessed as inhibition of bacterial growth incubated for 2 weeks; format: functional; conditions: 336 h
[22] = system: Mycobacterium tuberculosis; assay: Antitubercular activity against Mycobacterium tuberculosis K07b00DS assessed as inhibition of bacterial growth incubated for 2 weeks; format: functional; conditions: 336 h
[23] = system: Mycobacterium tuberculosis; assay: Antitubercular activity against Mycobacterium tuberculosis HN878 assessed as inhibition of bacterial growth incubated for 2 weeks; format: functional; conditions: HN878, 336 h
[24] = system: Mycobacterium tuberculosis; assay: Antitubercular activity against Mycobacterium tuberculosis H37Rv ATCC 27294 assessed as inhibition of bacterial growth cultured in Middlebrook 7H9/ADC/Tween 80 medium for 2 weeks; format: functional; conditions: H37Rv ATCC 27294, 336 h
[25] = system: Mycobacterium tuberculosis; assay: Antitubercular activity against Mycobacterium tuberculosis H37RV ATCC 27294 assessed as inhibition of bacterial growth cultured in Middlebrook 7H9/cholesterol/BSA/Tyloxapol medium for 2 weeks; format: functional; conditions: H37Rv ATCC 27294, 336 h
[26] = system: Mycobacterium tuberculosis; assay: Induction of DNA damage in Mycobacterium tuberculosis H37Rv transfected with PrecA-LUX reporter assessed as induction of recA reporter gene expression incubated for 12 days by bioluminescence analysis; format: functional, organism-based; conditions: time 12.0 day
[27] = system: Mycobacterium tuberculosis; assay: Induction of DNA damage in Mycobacterium tuberculosis H37Rv transfected with PradA-LUX reporter assessed as induction of radA reporter gene expression incubated for 12 days by bioluminescence analysis; format: functional, organism-based; conditions: time 12.0 day
[28] = system: Mycobacterium tuberculosis; assay: Antitubercular activity against Mycobacterium tuberculosis H37Rv ATCC 27294 assessed as inhibition of bacterial growth cultured in Middlebrook 7H9/ADC/Tween 80 with cydC::aph medium for 2 weeks; format: functional; conditions: H37Rv ATCC 27294, 336 h
[29] = system: Mycobacterium tuberculosis; assay: Antitubercular activity against Mycobacterium tuberculosis H37Rv ATCC 27294 assessed as inhibition of bacterial growth cultured in Middlebrook 7H9/DPPC/cholesterol/BSA/Tyloxapol medium for 2 weeks; format: functional; conditions: H37Rv ATCC 27294, 336 h

With `O=C(C1CCN(c2nnc(-c3ccccc3)o2)C1)N1CCC(Cc2ccccc2)CC1` (stereo unspecified) the IC50 at 24 h [1] was greater than 50 µM, the MIC [2] was 6.3 µM (≈ 2.62 µg/mL) and the MIC [3] was 50 µM (≈ 20.8 µg/mL). For the same compound, the IC50 at 24 h [4] was greater than 50 µM.
Work on `Cc1nnc(N2CCC(C(=O)N3CCC(Cc4ccccc4)CC3)CC2)o1` yielded an IC50 at 24 h [1] greater than 50 µM, an MIC [2] greater than 50 µM and an MIC [3] greater than 50 µM. It also gave an IC50 at 24 h [4] greater than 50 µM.
In the case of `COc1nc2ccc(Br)cc2cc1[C@@H](c1ccccc1)[C@@](O)(CCN(C)C)c1cccc2ccccc12` [BEDAQUILINE], the MIC [5] was 0.07 µM (≈ 0.0389 µg/mL), the MIC [6] was 0.2 µM (≈ 0.111 µg/mL) and the MIC [7] was 0.07 µM (≈ 0.0389 µg/mL). It also gave an MIC [8] of 0.3 µM (≈ 0.167 µg/mL), an MIC [9] of 0.2 µM (≈ 0.111 µg/mL) and an MIC [10] of 0.1 µM (≈ 0.0556 µg/mL). It also gave an MIC [11] of 0.1 µM (≈ 0.0556 µg/mL), an MIC [12] of 0.04 µM (≈ 0.0222 µg/mL) and an MIC [13] of 0.1 µM (≈ 0.0556 µg/mL). It also gave an MIC [14] of 0.05 µM (≈ 0.0278 µg/mL), an MIC [15] of 0.05 µM (≈ 0.0278 µg/mL) and an MIC [16] of 0.1 µM (≈ 0.0556 µg/mL). It also gave an MIC [17] of 0.04 µM (≈ 0.0222 µg/mL), an MIC [18] of 0.07 µM (≈ 0.0389 µg/mL) and an MIC [19] of 0.15 µM (≈ 0.0833 µg/mL). For the same compound, the MIC [20] was 0.6 µM (≈ 0.333 µg/mL), the MIC [21] was 0.07 µM (≈ 0.0389 µg/mL) and the MIC [22] was 0.15 µM (≈ 0.0833 µg/mL). For the same compound, the MIC [23] was 0.05 µM (≈ 0.0278 µg/mL).
Work on `O=C(C1CCN(c2nnc(-c3ccccc3)o2)CC1)N1CCCCC1` yielded an IC50 at 24 h [1] greater than 50 µM, an MIC [2] greater than 50 µM and an MIC [3] greater than 50 µM. For the same compound, the IC50 at 24 h [4] was greater than 50 µM.
Compound `O=C(C1CCN(c2nnc(-c3ccccc3)o2)CC1)N1CCC(C(F)(F)F)CC1` has an IC50 at 24 h [1] greater than 50 µM, an MIC [2] of 0.2 µM (≈ 0.0817 µg/mL) and an MIC [3] of 1.56 µM (≈ 0.637 µg/mL). For the same compound, the IC50 at 24 h [4] was greater than 50 µM.
`O=C(C1CCN(c2nnc(-c3ccccc3)o2)CC1)N1CCC(Oc2ccccc2)CC1` showed an IC50 at 24 h [1] of 37.5 µM, an MIC [2] of 2.3 µM (≈ 0.995 µg/mL) and an MIC [3] of 4.7 µM (≈ 2.03 µg/mL). It also gave an IC50 at 24 h [4] of 37.5 µM.
`O=C(CC1CCN(c2nnc(-c3ccccc3)o2)CC1)N1CCC(Cc2ccccc2)CC1` showed an IC50 at 24 h [1] of 37.5 µM, an MIC [2] of 4.7 µM (≈ 2.09 µg/mL) and an MIC [3] of 12.5 µM (≈ 5.56 µg/mL). The IC50 at 24 h [4] was greater than 50 µM.
With `O=C(C1CCN(c2nnc(-c3ccc(C(F)(F)F)cc3)o2)CC1)N1CCC(Cc2ccccc2)CC1` the IC50 at 24 h [1] was greater than 50 µM, the MIC [2] was greater than 50 µM and the MIC [3] was greater than 50 µM. It also gave an IC50 at 24 h [4] greater than 50 µM.
For `CN1CCN(C(=O)C2CCN(c3nnc(-c4ccccc4)o3)CC2)CC1`, the IC50 at 24 h [1] was greater than 50 µM, the MIC [2] was greater than 50 µM and the MIC [3] was greater than 50 µM. For the same compound, the IC50 at 24 h [4] was greater than 50 µM.
`O=C(C1CCN(c2nnc(-c3ccccc3)o2)CC1)N1CCCC(Cc2ccccc2)C1` (stereo unspecified) showed an IC50 at 24 h [1] of 37.5 µM, an MIC [2] of 25 µM (≈ 10.8 µg/mL) and an MIC [3] of 50 µM (≈ 21.5 µg/mL). For the same compound, the IC50 at 24 h [4] was greater than 50 µM.
Work on `O=C(C1CCN(c2nnc(-c3ccc(F)cc3)o2)CC1)N1CCC(Cc2ccccc2)CC1` yielded an IC50 at 24 h [1] greater than 50 µM, an MIC [2] of 0.15 µM (≈ 0.0673 µg/mL) and an MIC [3] of 1.2 µM (≈ 0.538 µg/mL). The IC50 at 24 h [4] was greater than 50 µM.
Compound `CCCCCC[C@H]1C(=O)O[C@H](C)[C@H](NC(=O)c2cccc(NC=O)c2O)C(=O)O[C@@H](C)[C@@H]1OC(=O)CC(C)C` [ANTIMYCIN A] has an IC50 at 24 h [1] of 0.12 µM and an IC50 at 24 h [4] greater than 250 µM.
With `O=C(C1CCN(c2nnc(-c3ccccc3)o2)CC1)N1CCN(Cc2ccccc2)CC1` the IC50 at 24 h [1] was greater than 50 µM, the MIC [2] was 25 µM (≈ 10.8 µg/mL) and the MIC [3] was 50 µM (≈ 21.6 µg/mL). It also gave an IC50 at 24 h [4] greater than 50 µM.
Compound `NNC(=O)c1ccncc1` [ISONIAZID] has an MIC [2] of 0.1 µM (≈ 0.0137 µg/mL), an MIC [24] of 0.2 µM (≈ 0.0274 µg/mL) and an MIC [3] of 0.16 µM (≈ 0.0219 µg/mL). The MIC [25] was 0.39 µM (≈ 0.0535 µg/mL), the Activity [26] was “inactive” and the Activity [27] was “inactive”. It also gave an MIC [28] of 0.39 µM (≈ 0.0535 µg/mL) and an MIC [29] of 0.2 µM (≈ 0.0274 µg/mL).
In the case of `O=C(C1CCN(c2nnc(-c3ccccc3)o2)CC1)N1CCC(c2ccccc2)CC1`, the IC50 at 24 h [1] was 37.5 µM, the MIC [2] was 2.3 µM (≈ 0.958 µg/mL) and the MIC [3] was 4.7 µM (≈ 1.96 µg/mL). For the same compound, the IC50 at 24 h [4] was greater than 50 µM.
In the case of `O=C(C1CCN(c2nnc(-c3ccncc3)o2)CC1)N1CCC(Cc2ccccc2)CC1`, the IC50 at 24 h [1] was 37.5 µM, the MIC [2] was 0.39 µM (≈ 0.168 µg/mL) and the MIC [3] was 1.2 µM (≈ 0.518 µg/mL). It also gave an IC50 at 24 h [4] greater than 50 µM.
